Patent US10966426B2, “Herbicidal compositions comprising phenylpyrimidines” (BASF SE, priority 2016, dated 2021)

Legend:
Format in all cases: in vivo
Avena fatua = experiment: greenhouse pre-emergence treatment, AVEFA; details: Avena fatua, 480 h, 20 DAT, AVEFA, metribuzin WG 70% solo 31.25 gai/ha
Outline: (§1)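 Seeds were sown per species in pots of loamy sand with about 3.0% humus, sprayed with the aqueous spray liquor directly after sowing, watered and hooded until rooted, then kept at 10-25° C. or 20-35° C. for 2 to 4 weeks. Damage was scored 0 (none) to 100 (no emergence/complete destruction).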

Helianthus annuus = experiment: greenhouse pre-emergence treatment, HELAN; details: Helianthus annuus, 480 h, 20 DAT, HELAN
Outline: as §1

Polygonum convolvulus = experiment: greenhouse pre-emergence treatment, POLCO; details: Fallopia convolvulus, 480 h, 20 DAT, POLCO
Outline: as §1

Setaria viridis = experiment: greenhouse pre-emergence treatment, SETVI; details: solo, WG 70%, SETVI, 31.25 gai/ha, 20 DAT
Outline: as §1

Digitaria sanguinalis = experiment: greenhouse pre-emergence treatment, DIGSA; details: Digitaria sanguinalis, 480 h, solo, WG 70%, DIGSA, 31.25 gai/ha, 20 DAT
Outline: as §1

Bromus sterilis = experiment: greenhouse pre-emergence treatment, BROST; details: Bromus sterilis, 480 h, 20 DAT, BROST
Outline: as §1

Brachiaria decumbens = experiment: greenhouse pre-emergence treatment, BRADC; details: Urochloa decumbens, 480 h, solo, WG 70%, BRADC, 62.5 gai/ha, 20 DAT
Outline: as §1

Apera spica-venti [1] = experiment: greenhouse pre-emergence treatment, APESV; details: solo, WG 70%, 20 DAT
Outline: as §1

Ambrosia elatior = experiment: greenhouse pre-emergence treatment, AMBEL; details: Ambrosia artemisiifolia, 480 h, 20 DAT, AMBEL
Outline: as §1

Papaver rhoeas = experiment: greenhouse post-emergence treatment, PAPRH; details: Papaver rhoeas, 480 h, solo, WG 70%, PAPRH, 17.5 gai/ha, 20 DAT
Outline: (§2)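 Seeds sown per species in pots of loamy sand; seedlings either grown in place or transplanted days before treatment. Post-emergence spray of water-based liquor at 3–15 cm height. Injury rated 0–100 over 2 to 4 weeks.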

Galium aparine = experiment: greenhouse post-emergence treatment, GALAP; details: Galium aparine, 480 h, 20 DAT, GALAP
Outline: as §2

Apera spica-venti [2] = experiment: greenhouse post-emergence treatment, APESV; details: 20 DAT, APESV; for % activity: solo, WG 70%
Outline: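 Visual herbicidal effect (0–100) recorded over a 2 to 4 week test period after foliar treatment at plant heights of 3 to 15 cm. Expected combination effects derived by the Colby formula from single-component effects X and Y.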

[3] = metribuzin WG 70% solo 125 gai/ha, read-out: % activity
[4] = metribuzin WG 70% solo 250 gai/ha
[5] = metribuzin WG 70% solo 62.5 gai/ha, read-out: % activity
[6] = metribuzin WG 70% solo 250 gai/ha, read-out: % activity

Q: `CSc1nnc(C(C)(C)C)c(=O)n1N` [metribuzin] was tested. Which inhibition at 31.25 g/ha (Avena fatua) did it give?
A: 30%

Q: What about the inhibition at 62.5 g/ha (Helianthus annuus; metribuzin WG 70% solo 62.5 gai/ha) of the same molecule?
A: 0%

Q: What about the inhibition at 125 g/ha (Helianthus annuus; [3]) of the same molecule?
A: 0%

Q: What about the inhibition at 250 g/ha (Helianthus annuus; [4]) of the same molecule?
A: 50%

Q: What about the plant injury at 31.25 g/ha (Helianthus annuus; solo, WG 70%, 31.25 gai/ha) of the same molecule?
A: 0%

Q: And the plant injury at 62.5 g/ha (Helianthus annuus; solo, WG 70%, 62.5 gai/ha)?
A: 0%

Q: And the plant injury at 250 g/ha (Helianthus annuus; solo, WG 70%, 250 gai/ha)?
A: 50%

Q: And the inhibition at 62.5 g/ha (Polygonum convolvulus; [5])?
A: 0%

Q: What about the inhibition at 125 g/ha (Polygonum convolvulus; [3]) of the same molecule?
A: 0%

Q: What about the inhibition at 250 g/ha (Polygonum convolvulus; [6]) of the same molecule?
A: 0%

Q: And the pest or weed control at 62.5 g/ha (Polygonum convolvulus; solo, WG 70%, 62.5 gai/ha)?
A: 0%

Q: What about the pest or weed control at 125 g/ha (Polygonum convolvulus; solo, WG 70%, 125 gai/ha) of the same molecule?
A: 0%

Q: And the “% activity” value (Setaria viridis)?
A: 0%

Q: And the pest or weed control at 31.25 g/ha (Digitaria sanguinalis)?
A: 40%

Q: What about the inhibition at 31.25 g/ha (Bromus sterilis; metribuzin WG 70% solo 31.25 gai/ha) of the same molecule?
A: 0%

Q: And the inhibition at 62.5 g/ha (Bromus sterilis; [5])?
A: 10%

Q: What about the inhibition at 250 g/ha (Bromus sterilis; [6]) of the same molecule?
A: 60%

Q: And the pest or weed control at 62.5 g/ha (Bromus sterilis; solo, WG 70%, 62.5 gai/ha)?
A: 10%

Q: And the pest or weed control at 62.5 g/ha (Brachiaria decumbens)?
A: 0%

Q: And the “% activity” value (Apera spica-venti [1]; 31.25 gai/ha)?
A: 30%

Q: What about the “% activity” value (Apera spica-venti [1]; 62.5 gai/ha) of the same molecule?
A: 50%

Q: And the percent weed control (herbicidal activity, 0-100 scale) at 250 g/ha (Ambrosia elatior; [4])?
A: 60%

Q: And the pest or weed control at 31.25 g/ha (Ambrosia elatior; solo, WG 70%, 31.25 gai/ha)?
A: 40%

Q: What about the pest or weed control at 62.5 g/ha (Ambrosia elatior; solo, WG 70%, 62.5 gai/ha) of the same molecule?
A: 40%

Q: What about the pest or weed control at 125 g/ha (Ambrosia elatior; solo, WG 70%, 125 gai/ha) of the same molecule?
A: 70%

Q: And the pest or weed control at 17.5 g/ha (Papaver rhoeas)?
A: 60%

Q: What about the inhibition at 17.5 g/ha (Galium aparine; metribuzin WG 70% solo 17.5 gai/ha) of the same molecule?
A: 0%

Q: What about the inhibition at 35 g/ha (Galium aparine; metribuzin WG 70% solo 35 gai/ha) of the same molecule?
A: 0%

Q: What about the inhibition at 70 g/ha (Galium aparine; metribuzin WG 70% solo 70 gai/ha) of the same molecule?
A: 0%

Q: What about the inhibition at 140 g/ha (Galium aparine; metribuzin WG 70% solo 140 gai/ha) of the same molecule?
A: 0%

Q: What about the pest or weed control at 35 g/ha (Galium aparine; solo, WG 70%, 35 gai/ha) of the same molecule?
A: 0%

Q: And the pest or weed control at 70 g/ha (Galium aparine; solo, WG 70%, 70 gai/ha)?
A: 0%

Q: What about the pest or weed control at 140 g/ha (Galium aparine; solo, WG 70%, 140 gai/ha) of the same molecule?
A: 0%

Q: And the inhibition at 17.5 g/ha (Apera spica-venti [2]; Apera spica-venti, 480 h, metribuzin WG 70% solo 17.5 gai/ha)?
A: 10%

Q: What about the inhibition at 35 g/ha (Apera spica-venti [2]; Apera spica-venti, 480 h, metribuzin WG 70% solo 35 gai/ha) of the same molecule?
A: 55%

Q: And the “% activity” value (Apera spica-venti [2]; 17.5 gai/ha)?
A: 10%

Q: And the “% activity” value (Apera spica-venti [2]; 35 gai/ha)?
A: 55%

Q: What about the “% activity” value (Apera spica-venti [2]; 70 gai/ha) of the same molecule?
A: 90%
